Values quoted from earlier work, collected in US10874098B2, “Organ preservation composition” (TX Innovations B.V., priority 2015, dated 2020).

Legend:
[1] = tested on: lung ischemia-reperfusion injury after lung transplantation; details: intraperitoneal treatment of the donor animal three days before harvesting

Compound | stability in aqueous solutions | preservation of the transplanted lung [1]
C[C@H](N)C(=O)O [L-alanine] | spontaneously degrade | –
NCCS(=O)(=O)O [taurine] | – | preservation of the transplanted lung in respect to histopathological and biochemical findings
L-alanine-L-glutamine | more stable in aqueous solutions and does not spontaneously degrade | –
